Experimental data: patent US10253041B2, “7-phenylethylamino-4H-pyrimido[4,5-d][1,3]oxazin-2-one compounds and their use as mutant IDH1 inhibitors” (Eli Lilly and Company, priority 2015, dated 2019)
Like-named read-outs stand apart in the source and are kept apart here.

Key:
IDH1/R132H = molecular target: T1, IDH1/R132H (Homo sapiens, UniProt O75874, R132H); experiment: Biochemical assay for IDH1 R132H mutant enzyme (2HG by RapidFire MS); settings: mean ± standard deviation of the mean; 90 minutes reaction
T1 construct: His-tag (N); made in house; host or cells: E. coli
T1 sequence (O75874 whole entry R132H): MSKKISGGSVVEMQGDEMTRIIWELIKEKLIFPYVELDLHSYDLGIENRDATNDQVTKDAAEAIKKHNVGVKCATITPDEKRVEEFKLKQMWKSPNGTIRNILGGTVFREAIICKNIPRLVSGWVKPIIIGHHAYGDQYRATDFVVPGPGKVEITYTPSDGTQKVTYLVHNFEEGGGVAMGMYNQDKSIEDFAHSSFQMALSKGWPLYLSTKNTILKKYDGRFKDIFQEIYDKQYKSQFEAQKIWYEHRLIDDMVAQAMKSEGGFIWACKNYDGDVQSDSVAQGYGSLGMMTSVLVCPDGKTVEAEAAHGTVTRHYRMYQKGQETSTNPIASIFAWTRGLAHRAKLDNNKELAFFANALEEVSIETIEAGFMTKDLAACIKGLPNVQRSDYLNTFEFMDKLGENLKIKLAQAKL
Protocol: (§1) IDH1-R132H, IDH1-R132C, IDH2-R172K and IDH2-R140Q mutant enzymes catalyze the conversion of αKG to 2HG. 2HG is analyzed using in-line solid phase extraction and mass spectrometry. This analysis is carried out in a RapidFire® instrument coupled to a 6460 triple quadrupole mass spectrometer (G6460A Agilent).
(§2) IDH1 mutant (R132H and R132C) and IDH2 mutant (R140Q and R172K) proteins containing N-terminal His-tag are expressed in E. coli and purified using nickel affinity chromatography. The enzyme assays are carried out in V-bottom 96 well polypropylene plates containing 100 mM Tris-HCl buffer, 1 mM DTT, 0.005% TRITON™ X-100, 120 mM NaCl. For IDH1 R132H, α-ketoglutarate, NADPH and MnCl2 are included at final concentrations of 300 μM, 2.5 μM and 300 μM respectively. For IDH1 R132C, α-ketoglutarate, NADPH and MnCl2 are included at final concentrations of 100 μM, 10 μM and 100 μM respectively. For IDH2 R172K, α-ketoglutarate, NADPH and MnCl2 are included at final concentrations of 150 μM, 10 μM and 150 μM respectively. For IDH2 R140Q, α-ketoglutarate, NADPH and MnCl2 are included at final concentrations of 3000 μM, 10 μM and 100 μM respectively. Final pH=7.0. Test compound dissolved in DMSO stock is diluted in the reaction mix at a final DMSO concentration of 4%. Compounds are tested in dose-response format. The assay is started by addition of enzyme. Enzymes are used at the following final concentrations: IDH1 R132H, 2 nM; IDH1 R132C, 0.5 nM; IDH2 R172K, 1.2 nM; IDH2 R140Q, 1.2 nM. After 90 minutes the reaction is quenched by adding ACN (50:50) containing 3-hydroxy-1,5-pentanedioic-2,2,3,4,4-d5 acid (5d5-3HG) as an internal standard for mass spectrometry analysis and quantitation of reaction product. 2-Hydroxyglutarate (2HG) in quenched samples is separated using strong anionic exchange column chromatography (Phenomenex Strata-X-A SecurityGuard) and analyzed by mass spectrometry in a 6460 triple quadrupole mass spectrometer (G6460A Agilent). The 2HG signal detected is transformed into an analyte concentration using a calibration curve generated using known 2HG concentrations. […] IC50 values are obtained from the individual % inhibition values at different compound concentrations using a 4-parameter equation. These calculations are carried out using Activity Base (IDBS) or Screener (Genedata) data analysis programs.

[1] = system: IDH1/R132H in U87MG glioma cells; experiment: U87MG/IDH1R132H cell assay (intracellular 2HG); assay type: cell-based; settings: 1 hour + 18 hours incubation, read-out: U87MG (IDH1/R132H 2-hydroxyglutarate IC50)
Protocol: To test the cellular inhibition of IDH1 mutant R132C, the fibrosarcoma cell line HT1080 (purchased from ATCC) is used. For testing cell-based inhibition of the R132H mutation, the U87MG glioma cell line (ATCC) was stably transfected with a DNA construct expressing the R132H mutant enzyme.
Cells are plated in poly-D-lys coated 96 well plates (12,000 cells/well) 18-24 hours previous to treatment with compounds. Four hours prior to compound treatment, cells are glutamine-starved by removing normal media and replacing with glutamine-free media. Following starvation, cells are then treated with different concentrations of test compounds (20 μM to 1 nM) dissolved in glutamine free media containing DMSO at a final concentration of 0.2%. The initial compound incubation is for 1 hour at 37° C./5% CO2. After 1 hour, glutamine is added to a final 2 mM concentration and the treated cells are then incubated for a further 18 hours at 37° C./5% CO2. Intracellular 2HG is analyzed in cell lysates obtained after media removal and treatment with lysis buffer (25 mM Tris-HCl pH 7.5, 150 mM NaCl, 1 mM EDTA, 1 mM EGTA/1% Triton-X 100). Cell lysates are conserved at −80° C. until processing. For analyte extraction, an aliquot of thawed lysate is transferred to a deep 96-well plate and treated with cold MeOH containing d5-3HG as an internal standard followed by chloroform and H2O (1:4:3:2). The upper phase is collected after separation and injected in HPLC to separate 2HG (and internal standard) using hydrophilic interaction (HILIC) chromatography coupled to MS/MS detection in a 6460 triple quadrupole mass spectrometer. Percent inhibition for each individual sample is obtained after normalizing calculated 2HG concentration to maximum and minimum references obtained in the presence and in the absence of glutamine during cell treatment with compounds. IC50 values are obtained from individual % inhibition using a sigmoidal dose-response 4-parameter equation. These calculations are carried out automatically using Activity Base (IDBS) or Screener (Genedata) data analysis programs.

IDH2/R140Q = molecular target: T2, IDH2/R140Q (Homo sapiens, UniProt P48735, R140Q); experiment: Biochemical assay for IDH2 R140Q mutant enzyme (2HG by RapidFire MS); settings: mean ± standard deviation of the mean; 90 minutes reaction
T2 construct: His-tag (N); made in house; host or cells: E. coli
T2 sequence (P48735 40-452 R140Q): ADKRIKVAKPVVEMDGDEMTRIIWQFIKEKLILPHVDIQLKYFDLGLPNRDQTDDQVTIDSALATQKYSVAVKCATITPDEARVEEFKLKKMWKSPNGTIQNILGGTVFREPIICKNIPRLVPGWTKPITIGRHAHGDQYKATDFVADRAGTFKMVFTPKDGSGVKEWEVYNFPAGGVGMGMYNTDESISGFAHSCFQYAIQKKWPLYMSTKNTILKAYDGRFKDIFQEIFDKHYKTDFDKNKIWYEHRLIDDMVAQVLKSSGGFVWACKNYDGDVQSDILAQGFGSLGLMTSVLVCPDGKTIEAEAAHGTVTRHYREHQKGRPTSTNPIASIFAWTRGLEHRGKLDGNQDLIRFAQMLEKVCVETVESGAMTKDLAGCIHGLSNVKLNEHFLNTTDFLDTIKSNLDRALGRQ
Protocol: as §1, §2

Row | IC50 (IDH1/R132H) | IC50 ([1]; Homo sapiens, U-87 MG, 19 h) | IC50 (IDH2/R140Q) | IC50 ([1]; Homo sapiens, U-87 MG) | Structure (SMILES) | IC50 [1]
1 | 39.7 ± 26 nM | 5.64 ± 0.35 nM | 10900 nM | – | C=CC(=O)N1CC(CCc2ccc([C@H](C)Nc3ncc4c(n3)N(CC)C(=O)OC4)cc2)C1 [Example 7, 1-Ethyl-7-[[(1S)-1-[4-[2-(1-prop-2-enoylazetidin-3-yl)ethyl]phenyl]ethyl]amino]-4H-pyrimido[4,5-d][1,3]oxazin-2-one] | –
2 | 150 ± 24 nM | 17.4 ± 1.3 nM | > 100000 nM | – | C=CC(=O)N1CCN(c2ccc([C@H](C)Nc3ncc4c(n3)N(C(C)C)C(=O)OC4)cc2)CC1 [Example 6, 1-Isopropyl-7-[[(1S)-1-[4-(4-prop-2-enoylpiperazin-1-yl)phenyl]ethyl]amino]-4H-pyrimido[4,5-d][1,3]oxazin-2-one] | –
3 | 290 ± 170 nM | 18.9 ± 5.1 nM | > 100000 nM | – | C=CC(=O)N1CCC2(CC1)CN(Cc1ccc([C@H](C)Nc3ncc4c(n3)N(C(C)C)C(=O)OC4)cc1)C2 [Example 8, 1-Isopropyl-7-[[(1S)-1-[4-[(7-prop-2-enoyl-2,7-diazaspiro[3.5]nonan-2-yl)methyl]phenyl]ethyl]amino]-4H-pyrimido[4,5-d][1,3]oxazin-2-one] | –
4 | 116 ± 15 nM | 5.79 ± 0.57 nM | 49000 nM | – | C=CC(=O)N1CCN(Cc2ccc([C@H](C)Nc3ncc4c(n3)N(CC)C(=O)OC4)cc2F)CC1 [Example 16, 1-Ethyl-7-[[(1S)-1-[3-fluoro-4-[(4-prop-2-enoylpiperazin-1-yl)methyl]phenyl]ethyl]amino]-4H-pyrimido[4,5-d][1,3]oxazin-2-one] | –
5 | 41.7 ± 3.6 nM | 3.68 ± 0.57 nM | 27000 nM | – | C=CC(=O)N1CC(COc2ccc([C@H](C)Nc3ncc4c(n3)N(C(C)C)C(=O)OC4)cc2)C1 [Example 9, 1-Isopropyl-7-[[(1S)-1-[4-[(1-prop-2-enoylazetidin-3-yl)methoxy]-phenyl]ethyl]amino]-4H-pyrimido[4,5-d][1,3]oxazin-2-one] | –
6 | 81.9 ± 54.1 nM | 9.75 ± 2.41 nM | > 100000 nM | – | C=CC(=O)N1CC2(CN(Cc3ccc([C@H](C)Nc4ncc5c(n4)N(CC)C(=O)OC5)cc3)C2)C1 [Example 14, 1-Ethyl-7-[[(1S)-1-[4-[(2-prop-2-enoyl-2,6-diazaspiro[3.3]heptan-6-yl)methyl]phenyl]ethyl]amino]-4H-pyrimido[4,5-d][1,3]oxazin-2-one] | –
7 | 323 ± 76 nM | 24.6 ± 15.9 nM | > 100000 nM | – | C=CC(=O)N1CCN(Cc2ccc([C@H](C)Nc3ncc4c(n3)N(CCF)C(=O)OC4)cc2)CC1 [Example 21, 1-(2-fluoroethyl)-7-[[(1S)-1-[4-[(4-prop-2-enoylpiperazin-1-yl)methyl]phenyl]ethyl]amino]-4H-pyrimido[4,5-d][1,3]oxazin-2-one] | –
8 | 128 ± 9 nM | 3.9 nM | > 100000 nM | – | C=CC(=O)N1CC2(CN(Cc3ccc([C@H](C)Nc4ncc5c(n4)N(C(C)C)C(=O)OC5)cc3)C2)C1 [Example 15, 1-Isopropyl-7-[[(1S)-1-[4-[(2-prop-2-enoyl-2,6-diazaspiro[3.3]heptan-6-yl)methyl]phenyl]ethyl]amino]-4H-pyrimido[4,5-d][1,3]oxazin-2-one] | –

Second part, the molecule before the results:

Row | Structure (SMILES) | IC50 (IDH1/R132H) | IC50 ([1]; Homo sapiens, U-87 MG, 19 h) | IC50 (IDH2/R140Q) | IC50 ([1]; Homo sapiens, U-87 MG) | IC50 [1]
9 | C=CC(=O)N1CCN(Cc2ccc([C@H](C)Nc3ncc4c(n3)N([C@H](C)CO)C(=O)OC4)cc2)CC1 [Example 11, 1-[(1R)-2-Hydroxy-1-methyl-ethyl]-7-[[(1S)-1-[4-[(4-prop-2-enoylpiperazin-1-yl)methyl]phenyl]ethyl]amino]-4H-pyrimido[4,5-d][1,3]oxazin-2-one] | 80.2 ± 51.9 nM | 7.35 ± 0.07 nM | > 100000 nM | – | –
10 | C=CC(=O)N1CC(COc2ccc([C@H](C)Nc3ncc4c(n3)N(CC)C(=O)OC4)cc2)C1 [Example 17, 1-Ethyl-7-[[(1S)-1-[4-[(1-prop-2-enoylazetidin-3-yl)methoxy]phenyl]ethyl]amino]-4H-pyrimido[4,5-d][1,3]oxazin-2-one] | 114 ± 38 nM | 6.75 ± 1.13 nM | 48700 nM | – | –
11 | C=CC(=O)N1CC=C(COc2ccc([C@H](C)Nc3ncc4c(n3)N(CC)C(=O)OC4)cc2)C1 [Example 22, 1-ethyl-7-[[(1S)-1-[4-[(1-prop-2-enoyl-2,5-dihydropyrrol-3-yl)methoxy]phenyl]ethyl]amino]-4H-pyrimido[4,5-d][1,3]oxazin-2-one] | – | – | 11600 ± 2000 nM | – | –
12 | C=CC(=O)N1CCC(N(C)Cc2ccc([C@H](C)Nc3ncc4c(n3)N(CC)C(=O)OC4)cc2)CC1 [Example 12, 1-Ethyl-7-[[(1S)-1-[4-[[methyl-(1-prop-2-enoyl-4-piperidyl)amino]-methyl]phenyl]ethyl]amino]-4H-pyrimido[4,5-d][1,3]oxazin-2-one] | 515 ± 86 nM | – | > 100000 nM | 13.5 ± 1.1 nM | –
13 | C=CC(=O)N1CCN(Cc2ccc([C@H](C)Nc3ncc4c(n3)N(CC)C(=O)OC4)cc2)CC1 [Example 2, 1-Ethyl-7-[[(1S)-1-[4-[(4-prop-2-enoylpiperazin-1-yl)methyl]phenyl]ethyl]amino]-4H-pyrimido[4,5-d][1,3]oxazin-2-one] | 110 ± 46 nM | – | 73900 nM | – | 5.08 ± 1.65 nM
14 | C=CC(=O)N1CC2(CN(Cc3ccc([C@H](C)Nc4ncc5c(n4)N(CC(C)C)C(=O)OC5)cc3)C2)C1 [Example 5, 1-Isobutyl-7-[[(1S)-1-[4-[(2-prop-2-enoyl-2,6-diazaspiro[3.3]heptan-6-yl)methyl]phenyl]ethyl]amino]-4H-pyrimido[4,5-d][1,3]oxazin-2-one] | 56 ± 15.7 nM | 9.84 ± 8.1 nM | > 100000 nM | – | –
15 | C=CC(=O)N1CC(N(C)Cc2ccc([C@H](C)Nc3ncc4c(n3)N(CC)C(=O)OC4)cc2)C1 [Example 10, 1-Ethyl-7-[[(1S)-1-[4-[[methyl-(1-prop-2-enoylazetidin-3-yl)amino]methyl]-phenyl]ethyl]amino]-4H-pyrimido[4,5-d][1,3]oxazin-2-one] | 260 ± 35 nM | 7.14 ± 1.27 nM | > 100000 nM | – | –
16 | C=CC(=O)N1CCN(Cc2ccc([C@H](C)Nc3ncc4c(n3)N(C)C(=O)OC4)cc2)CC1 [Example 19, 1-Methyl-7-[[(1S)-1-[4-[(4-prop-2-enoylpiperazin-1-yl)methyl]phenyl]ethyl]amino]-4H-pyrimido[4,5-d][1,3]oxazin-2-one] | 776 ± 210 nM | – | > 100000 nM | 44.9 ± 22.4 nM | –
